Assay results reported in US20050113579A1, “Naphthalimide synthesis including amonafide synthesis and pharmaceutical preparations thereof” (ChemGenex Therapeutics, Inc., priority 2002, published 2005).
Where a name gives a salt, the structure may show the parent alone.

Tests used:
[1] = physchem; format: physicochemical
Procedure: Precipitation occurs as pH increases above 6.5. Solubility is about 1 mg/mL at pH 9 and 0.05 mg/mL at pH 11.

[2] = Titration with sodium hydroxide; format: physicochemical
Procedure: 561 mg amonafide dihydrochloride (1.57 mmol) was dissolved in 10 mL water to yield a clear red solution with pH at 1.2. With constant stirring, 1N NaOH solution was added. Solution remained clear until pH greater than 6.7. As shown in the titration curve below, 3.3 mmol NaOH was used to neutralize amonafide dihydrochloride in the solution. The calculated mol ratio of amonafide to NaOH was 1:2. [drawing]

[3] = Solubility in water (general statements); format: physicochemical; conditions: general statement
[4] = Osmolality of the product; format: physicochemical
[5] = free base; background statement; cited from earlier work

Row | Structure (SMILES) | pH above which precipitation occurs ([1]; as pH increases) | solubility ([1]; pH 1, water) [µg/mL] | solubility ([1]; pH 9, aqueous buffer) [µg/mL] | solubility ([1]; pH 11, aqueous buffer) [µg/mL] | pH of solution ([2]; 561 mg (1.57 mmol) dissolved in 10 mL water, clear red solution) | pH until which solution remained clear ([2]; 1N NaOH added with constant stirring) | solubility in water compared to monohydrochloride salt [3] | osmolality [4] | solubility in water [5]
1 | CN(C)CCN1C(=O)c2cccc3cc(N)cc(c23)C1=O [amonafide dihydrochloride] | above 6.5 | > 250000 | ~1000 | 50 | 1.2 | greater than 6.7 | more soluble in water | equivalent to 0.9% sodium chloride solution | –
2 | CN(C)CCN1C(=O)c2cccc3cc(N)cc(c23)C1=O [Amonafide, 5-amino-2-[(dimethylamine)ethyl]-1H-benz[de-]isoquinoline-1,3-(2H)-dione] | – | – | – | – | – | – | – | – | very poorly soluble
